Test results as given in US20120309676A1, “Lantibiotic Salts” (priority 2010, published 2012).
Structures can show the parent of a compound that is named as a salt.

Legend:
[1] = test system: Staphylococcus aureus methicillin resistant ATCC 33591; assay: Mouse bacteraemia model, SC dosing; assay type: in vivo
Method: Groups of 6 male CD-1 (Crl.) derived mice weighing 24±2 g were used. Mice were inoculated intraperitoneally (IP) with an LD90-100 of Staphylococcus aureus methicillin resistant ATCC 33591 (1.1×10^7 CFU/mouse) in 0.5 mL of BHI broth containing 5% mucin. Example 1 and vancomycin were dissolved in 15% HPbetaCD/4.4% glucose/0.5 mM KH2PO4, pH 5.0 and doses of 1, 3, 5, 10 and 20 mg/Kg were administered subcutaneously (SC) to test animals at 0, 2 and 24 hour(s) after bacteria challenge. The dosing volume was 5 mL/Kg. Mortality was recorded once daily for 7 days (FIG. 1). The ED50 for each compound was determined by nonlinear regression.

[2] = test system: Vancomycin sensitive enterococci, E. faecalis; assay: MIC susceptibility testing, vancomycin sensitive enterococci (E. faecalis); assay type: cell-based
Method: (§1) Susceptibility testing with the exception of Streptococcus pneumoniae was performed by two-fold serial dilutions in Mueller Hinton Broth supplemented with 50 μg/mL Ca^2+. Susceptibility testing of S. pneumoniae was performed by two-fold serial dilutions in Brain-Heart-Infusion Broth supplemented with 50 μg/mL Ca^2+.
(§2) Modal values from up to 6 determinations

[3] = test system: Methicillin Resistant Staphylococcus aureus (MRSA, ATCC 33591); assay: Neutropaenic mouse thigh infection model, further experiment; assay type: in vivo; conditions: IV 2 and 14 h after infection, 2.5-50 mg/Kg, FIG. 3
Method: In a further experiment, groups of 6 male ICR mice weighing 24±2 g were used. Test animals were immunosuppressed by 2 intraperitoneal injections of cyclophosphamide, the first at 150 mg/Kg 4 days before infection (day-4) and the second at 100 mg/Kg 1 day before infection (day-1). On day 0, individual animals were inoculated intramuscularly (IM) into the right thigh of test animals with 1.5×10^5 CFU/mouse of Methicillin Resistant Staphylococcus aureus (MRSA, ATCC 33591) suspended in 100 μL of sterile PBS, pH 7.4. Vehicle and test substances were administered intravenously (IV) at a dose volume of 8 mL/Kg, 2 and 14 hours after thigh infection. Example 1 was dissolved in 5% dextrose/1 mM potassium phosphate, pH 5.0 and administered at doses of 2.5, 5, 10, 15, 25 and 50 mg/Kg. At 26 hours after inoculation, muscle of the right thigh of each test mouse was harvested. From an additional group with no treatment, muscle of the right thigh was harvested at 2 hours after inoculation for the basal CFU determination. The removed muscle tissues were then homogenized in 3-4 mL of PBS, pH 7.4 with a ceramic mortar. Homogenates of 0.1 mL were used for serial 10-fold dilutions and plated on Mueller Hinton broth in 1.5% Bacto agar for CFU determination.

S. pyogenes = assay: MIC susceptibility testing, S. pyogenes; assay type: cell-based
Method: as §1, §2

Streptococcus pneumoniae = assay: MIC susceptibility testing, S. pneumoniae (Brain-Heart-Infusion Broth); assay type: cell-based; conditions: S. pneumoniae R33
Method: as §1, §2

[4] = test system: Staphylococcus aureus methicillin resistant ATCC 33591; assay: Mouse bacteraemia model, second experiment, IV dosing; assay type: in vivo; conditions: for number of deaths: after 7 days, groups of 6 mice
Method: In a second experiment Groups of 6 male CD-1 (Crl.) derived mice weighing 24±2 g were used. Mice were inoculated intraperitoneally (IP) with an LD90-100 of Staphylococcus aureus methicillin resistant ATCC 33591 (1.35×10^8 CFU/mouse) in 0.5 mL of BHI broth containing 5% mucin. Example 1 was dissolved in 5% dextrose/1.5 mM potassium phosphate, pH 5.0 and doses of 1, 3, 5 and 10 mg/Kg were administered intravenously (IV) to test animals at 1 and 13 hour(s) after bacteria challenge. The dosing volume was 5 mL/Kg. Mortality was recorded once daily for 7 days.

[5] = test system: Vancomycin resistant enterococci, E. faecalis; assay: MIC susceptibility testing, vancomycin resistant enterococci (E. faecalis); assay type: cell-based
Method: as §1, §2

CC[C@H](C)[C@@H]1NC(=O)[C@@H]2NC(=O)[C@H](CC(C)C)NC(=O)[C@H](NC(=O)[C@@H]3CSC[C@@H](N)C(=O)N[C@@H](CO)C(=O)NCC(=O)N[C@@H](Cc4c[nH]c5ccccc45)C(=O)N[C@@H](C(C)C)C(=O)N3)[C@H](C)SC[C@H](NC(=O)[C@H](CCC(=O)O)NC1=O)C(=O)NCC(=O)N[C@H]1C(=O)N[C@@H](CC(C)C)C(=O)N[C@@H](C(C)C)C(=O)N[C@@H](CS[C@H]2C)C(=O)N[C@@H](C)C(=O)N[C@H](C(=O)NCc2cc(Cl)cc(Cl)c2)CS[C@H]1C [Example 1, Deoxyactagardine B (3,5-dichlorobenzylamine) monocarboxamide N-methyl glucamine salt]
survival rate ([1]; 3 mg/Kg): 100% | antimicrobial effect against S. aureus (MRSA) in mice ([1]; 3, 5, 10 and 20 mg/Kg×3, SC): significant antimicrobial effect | increase in survival rate ([1]; 3, 5, 10 and 20 mg/Kg×3, SC): at least 50% | estimated ED50 ([1]; CD-1 mice, SC at 0, 2 and 24 h after challenge, mortality over 7 days, nonlinear regression): 1.07 mg/kg | MIC ([2]; E. faecalis 7757400): <4 µg/mL | MIC ([2]; E. faecalis 7791220): <16 µg/mL | MIC ([2]; E. faecalis GRL05022): <8 µg/mL | MIC ([2]; E. faecalis GRL05023): 4 µg/mL | MIC ([2]; E. faecalis GRL05024): <8 µg/mL | MIC ([2]; E. faecalis GRL05026): 8 µg/mL | MIC ([2]; E. faecalis GRL05027): 4 to 8 µg/mL | MIC ([2]; E. faecalis GRL05029): 4 µg/mL | MIC ([2]; E. faecalis GRL05030): <8 µg/mL | bacterial counts in the thigh tissue [3]: dose dependent reduction | MIC (S. pyogenes; S. pyogenes 7713283): 0.06 µg/mL | MIC (S. pyogenes; S. pyogenes 7755255): <2 µg/mL | MIC (S. pyogenes; S. pyogenes 7755441): 0.06 µg/mL | MIC (S. pyogenes; S. pyogenes 7755584): 0.06 to 0.125 µg/mL | MIC (S. pyogenes; S. pyogenes 7757080): <1 µg/mL | MIC (S. pyogenes; S. pyogenes 7865253): 0.06 µg/mL | MIC (S. pyogenes; S. pyogenes 7865289): 0.06 µg/mL | MIC (S. pyogenes; S. pyogenes 7865844): 8 µg/mL | MIC (S. pyogenes; S. pyogenes GRL05041): <1 µg/mL | MIC (S. pyogenes; S. pyogenes GRL05042): 0.06 µg/mL | MIC (S. pyogenes; S. pyogenes GRL05043): <8 µg/mL | MIC (S. pyogenes; S. pyogenes GRL05045): <4 µg/mL | MIC (S. pyogenes; S. pyogenes GRL05046): 0.06 µg/mL | MIC (Streptococcus pneumoniae): <16 µg/mL | number of deaths ([4]; 1 mg/kg IV at 1 and 13 h after challenge): 5 | number of deaths ([4]; 3 mg/kg IV at 1 and 13 h after challenge): 4 | number of deaths ([4]; 5 mg/kg IV at 1 and 13 h after challenge): 1 | number of deaths ([4]; 10 mg/kg IV at 1 and 13 h after challenge): 1 | survival of mice after 7 days ([4]; 1, 3, 5 and 10 mg/kg): dose-dependent incease in survival | MIC ([5]; E. faecalis 9758512): 8 µg/mL | MIC ([5]; E. faecalis GRL05031): 2 to 4 µg/mL | MIC ([5]; E. faecalis GRL05032): 8 µg/mL | MIC ([5]; E. faecalis GRL05033): 8 µg/mL | MIC ([5]; E. faecalis GRL05034): 4 µg/mL | MIC ([5]; E. faecalis GRL05035): 8 µg/mL
